SMILES strings stand for the structures.

This test concerns Cardiomyocyte cell line H9c2 cells. Description: Inhibitory effect on ischemic cell death (chemical hypoxia, DAPI staining). It is filed as cell-based. The settings on record: Rattus norvegicus, derivative 10 μM in DMSO, 30 min pretreatment, then chemical hypoxia solution 1 to 2 hours, DAPI stain, fluorescence microscope, DMSO control 25.86385, read-out: Apoptosis (%). The procedure: The aminopyrazole derivatives of the present invention were examined for ischemic cell death inhibitory effect in cells according to the following procedure.
Cardiomyocyte cell line H9c2 cells were cultured in DMEM (Dulbecco's modified Eagle's medium) supplemented with 10% fetal bovine serum and 1% penicillin/streptomycin (100× solution). The cells were grown in 35 mm dishes such that the number thereof becomes 1×10^4, and cultured at 37° C. for 48 hours in a CO2 incubator. The cells were treated with 0.1% DMSO only (control), or the solutions dissolving the derivatives of Examples 1 to 30 (10 μM) in DMSO respectively. After 30 minutes, the cells were washed with PBS, and continuously treated with the DMSO solution (control) or the above solutions dissolving the derivatives together with chemical hypoxia solution (106 mM NaCl, 4.4 mM KCl, 1 mM MgCl2, 38 mM NaHCO3, 2.5 mM CaCl2, 20 mM 2-deoxy glucose, 1 mM NaCN) for 1 to 2 hours, while evaluating the cell damage by microscope. At the time when the sufficient damage were observed, the cells were washed with 1 ml of PBS twice, and then treated to fix with 1 ml of 3.7% formaldehyde. The cells obtained were washed with 1 ml of PBS again, stained with DAPI, and then washed with 1 ml of PBS in three times. The cell death of the cells was observed by a fluorescence microscope, and the degree of the observed cell death was converted to percentages.

`COC(=O)c1nn(CCc2ccccc2)cc1NC(=O)CSc1ccc(Br)cc1` [Example 1, 4-[2-(4-bromo-phenylsulfanyl)-acetylamino]-1-phenethyl-1H-pyrazole-3-carboxylic acid methyl ester]: the cytotoxicity at 10 µM was determined as 5.79%.

Consider `COC(=O)c1nn(CCc2ccccc2)cc1NC(=O)CSc1ccccc1` [Example 2, 4-[2-(phenylsulfanyl)-acetylamino]-1-phenethyl-1H-pyrazole-3-carboxylic acid methyl ester], for which the cytotoxicity at 10 µM amounted to 11%.

Regarding `COC(=O)c1nn(CCc2ccccc2)cc1NC(=O)CSc1cccc(OC)c1` [Example 3, 4-[2-(3-methoxy-phenylsulfanyl)-acetylamino]-1-phenethyl-1H-pyrazole-3-carboxylic acid methyl ester], the cytotoxicity at 10 µM worked out at 8.26%.

Regarding `COC(=O)c1nn(CCc2ccccc2)cc1NC(=O)CSc1ccc([N+](=O)[O-])cc1` [Example 4, 4-[2-(4-nitro-phenylsulfanyl)-acetylamino]-1-phenethyl-1H-pyrazole-3-carboxylic acid methyl ester], the cytotoxicity at 10 µM was found to be 3.74%.

For `COC(=O)c1nn(CCc2ccccc2)cc1NC(=O)CSc1ccccc1N` [Example 5, 4-[2-(2-amino-phenylsulfanyl)-acetylamino]-1-phenethyl-1H-pyrazole-3-carboxylic acid methyl ester], the cytotoxicity at 10 µM was determined as 6.48%.

As for `COC(=O)c1nn(CCc2ccccc2)cc1NC(=O)CSc1ccc(C)cc1` [Example 6, 4-[2-(4-methyl-phenylsulfanyl)-acetylamino]-1-phenethyl-1H-pyrazole-3-carboxylic acid methyl ester], the cytotoxicity at 10 µM was 5.43%.

Turning to `COC(=O)c1nn(CCc2ccccc2)cc1NC(=O)CSc1ccc(F)cc1` [Example 7, 4-[2-(4-fluoro-phenylsulfanyl)-acetylamino]-1-phenethyl-1H-pyrazole-3-carboxylic acid methyl ester], the cytotoxicity at 10 µM turned out to be 6.49%.

As for `COC(=O)c1nn(CCc2ccccc2)cc1NC(=O)CSc1ccccn1` [Example 8, 4-[2-(2-pyridylsulfanyl)-acetylamino]-1-phenethyl-1H-pyrazole-3-carboxylic acid methyl ester], the cytotoxicity at 10 µM was 5.65%.

Consider `COC(=O)c1nn(CCc2ccccc2)cc1NC(=O)C[S+]([O-])c1ccccn1` (stereo not drawn) [Example 9, 4-[2-(2-pyridylsulfinyl)-acetylamino]-1-phenethyl-1H-pyrazole-3-carboxylic acid methyl ester], for which the cytotoxicity at 10 µM stood at 3.74%.

With `COC(=O)c1nn(CCc2ccccc2)cc1NC(=O)CS(=O)(=O)c1ccccn1` [Example 10, 4-[2-(2-pyridylsulfonyl)-acetylamino]-1-phenethyl-1H-pyrazole-3-carboxylic acid methyl ester], the cytotoxicity at 10 µM came out at 7.27%.

In the case of `COC(=O)c1nn(CCc2ccccc2)cc1NC(=O)CSc1ccc(C)c(C)c1` [Example 11, 4-[2-(3,4-dimethyl-phenylsulfanyl)-acetylamino]-1-phenethyl-1H-pyrazole-3-carboxylic acid methyl ester], the cytotoxicity at 10 µM turned out to be 15.7%.

`COC(=O)c1nn(Cc2ccccc2)cc1NC(=O)CSc1ccc(Br)cc1` [Example 12, 4-[2-(4-bromo-phenylsulfanyl)-acetylamino]-1-benzyl-1H-pyrazole-3-carboxylic acid methyl ester]: the cytotoxicity at 10 µM is 11.5%.

Consider `COC(=O)c1nn(Cc2ccccc2)cc1NC(=O)CSc1ccccc1` [Example 13, 4-[2-phenylsulfanylacetylamino]-1-benzyl-1H-pyrazole-3-carboxylic acid methyl ester], for which the cytotoxicity at 10 µM was 9.81%.

For `COC(=O)c1nn(C)cc1NC(=O)CSc1ccc(Br)cc1` [Example 14, 4-[2-(4-bromo-phenylsulfanyl)-acetylamino]-1-methyl-1H-pyrazole-3-carboxylic acid methyl ester], the cytotoxicity at 10 µM is 13.3%.

As for `COC(=O)c1nn(C)cc1NC(=O)CSc1ccccc1` [Example 15, 4-[2-phenylsulfanylacetylamino]-1-methyl-1H-pyrazole-3-carboxylic acid methyl ester], the cytotoxicity at 10 µM turned out to be 11.3%.

As for `COC(=O)c1c(NC(=O)CSc2ccc(Br)cc2)cnn1CCc1ccccc1` [Example 16, 4-[2-(4-bromo-phenylsulfanyl)-acetylamino]-2-phenethyl-2H-pyrazole-3-carboxylic acid methyl ester], the cytotoxicity at 10 µM was determined as 10.8%.

Take `COC(=O)c1c(NC(=O)CSc2ccc(Br)cc2)cnn1C` [Example 17, 4-[2-(4-bromo-phenylsulfanyl)-acetylamino]-2-methyl-2H-pyrazole-3-carboxylic acid methyl ester]: the cytotoxicity at 10 µM turned out to be 13.9%.

With `COC(=O)c1nn(CCc2ccccc2)cc1NC(=O)CCSc1ccc(Br)cc1` [Example 18], the cytotoxicity at 10 µM worked out at 8.75%.

Consider `CCOC(=O)c1cnn(CCc2ccccc2)c1NC(=O)CSc1ccc(Br)cc1` [Example 19, 5-[2-(4-bromo-phenylsulfanyl)-acetylamino]-1-phenethyl-1H-pyrazole-4-carboxylic acid ethyl ester], for which the cytotoxicity at 10 µM was determined as 8.19%.

On to `COC(=O)c1nn(CCc2ccccc2)cc1NC(=O)C(Sc1ccc(Br)cc1)c1ccccc1` (stereo not drawn) [Example 20, 4-[2-(4-bromo-phenylsulfanyl)-2-phenyl-acetylamino]-1-phenethyl-1H-pyrazole-3-carboxylic acid methyl ester], for which the cytotoxicity at 10 µM amounted to 6.07%.

For the compound `COC(=O)c1cc(NC(=O)CSc2ccc(Br)cc2)n(C)n1` [Example 21, 5-[2-(4-bromo-phenylsulfanyl)-acetylamino]-1-methyl-1H-pyrazole-3-carboxylic acid methyl ester], the cytotoxicity at 10 µM is 8.33%.

Turning to `COC(=O)c1cc(NC(=O)CSc2ccccc2)n(C)n1` [Example 22, 1-methyl-5-(2-phenylsulfanyl-acetylamino)-1H-pyrazole-3-carboxylic acid methyl ester], the cytotoxicity at 10 µM stood at 10.7%.

As for `O=C(CSc1ccc(Br)cc1)Nc1cn(CCc2ccccc2)nc1C(=O)O` [Example 23, 4-[2-(4-bromo-phenylsulfanyl)-acetylamino]-1-phenethyl-1H-pyrazole-3-carboxylic acid], the cytotoxicity at 10 µM is 7.76%.

Turning to `O=C(CSc1ccc(Br)cc1)Nc1cn(CCc2ccccc2)nc1C1=NCCO1` [Example 24, 2-(4-bromo-phenylsulfanyl)-N-[3-(4,5-dihydro-oxazol-2-yl)-1-phenethyl-1H-pyrazol-4-yl]-acetamide], the cytotoxicity at 10 µM came out at 12.7%.

Turning to `NC(=O)c1nn(CCc2ccccc2)cc1NC(=O)CSc1ccc(Br)cc1` [Example 25, 4-[2-(4-bromo-phenylsulfanyl)-acetylamino]-1-phenethyl-1H-pyrazole-3-carboxylic acid amide], the cytotoxicity at 10 µM was 6.07%.

As to `O=C(CSc1ccc(Br)cc1)Nc1cn(CCc2ccccc2)nc1CO` [Example 26, 2-(4-bromo-phenylsulfanyl)-N-(3-hydroxymethyl-1-phenethyl-4H-pyrazol-4-yl)-acetamide], the cytotoxicity at 10 µM is 7.27%.

Consider `COC(=O)c1nn(CCc2ccccc2)cc1NC(=O)CCc1ccccc1` [Example 27, 4-[3-phenyl-propionylamino]-1-phenethyl-4H-pyrazole-3-carboxylic acid methyl ester], for which the cytotoxicity at 10 µM came out at 5.08%.

In the case of `COC(=O)c1nn(CCc2ccccc2)cc1NC(=O)COc1ccc(Br)cc1` [Example 28, 4-[2-(4-bromophenoxy)-acetylamino]-1-phenethyl-1H-pyrazole-3-carboxylic acid methyl ester], the cytotoxicity at 10 µM was found to be 3.74%.

`COC(=O)c1nn(CCc2ccccc2)cc1NC(=O)CNc1ccc(Br)cc1` [Example 29, 4-[2-(4-bromo-phenylamino)-acetylamino]-1-phenethyl-1H-pyrazole-3-carboxylic acid methyl ester]: the cytotoxicity at 10 µM was determined as 9.31%.

As for `COCc1nn(CCc2ccccc2)cc1NC(=O)CSc1ccc(Br)cc1` [Example 30, 2-(4-bromo-phenylsulfanyl)-N-(3-methoxymethyl-1-phenethyl-1H-pyrazol-4-yl)-acetamide], the cytotoxicity at 10 µM came out at 5.22%.

The values above are taken from patent publication US7939550B2, “Aminopyrazole derivatives, process for the preparation thereof, and composition for preventing or treating ischemic diseases containing the same” (Korea Research Institute of Chemical Technology, priority 2006, dated 2011).
